According to patent US7666898B2, “Multivalent indole compounds and use thereof as phospholipase-A2 inhibitors” (Ilypsa, Inc., priority 2005, dated 2010):

Key:
[1] = target: human pancreatic secreted PLA2 (hps PLA2) (Homo sapiens, UniProt P04054); conditions: reported literature data; cited from earlier work
[2] = target: T1, human non-pancreatic PLA2 (hnp PLA2) (Homo sapiens, UniProt P14555); conditions: reported literature data; cited from earlier work
T1 sequence (P14555 21-144): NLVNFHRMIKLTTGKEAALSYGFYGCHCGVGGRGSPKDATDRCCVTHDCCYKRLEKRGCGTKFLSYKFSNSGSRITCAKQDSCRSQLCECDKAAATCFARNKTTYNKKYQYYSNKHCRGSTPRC

[3] = target: porcine pancreatic secreted PLA2 (pps PLA2) (Sus scrofa, UniProt P00592); conditions: reported literature data; cited from earlier work
[4] = test system: C57BL/6J mouse model of obesity; experiment: Mouse diet-induced obesity model (Example 14); format: in vivo; conditions: low fat control diet D12328, 25 or 90 mg/kg/d, vs low fat diet alone
Excerpt: The high-fat diet-fed C57BL/6J mouse model of human diabetes, originally introduced by Surwit and colleagues (Surwit, R S, et al. (1988) “Diet-induced type II diabetes in C57BL/6J mice”, Diabetes 37: 1163-1167) is a widely accepted, clinically relevant, polygenic model that induces obesity, dyslipidemia, glucose- and insulin-resistance as early as 3 weeks after commencing the high fat diet (Winzell, M S and Ahren, B (2004) “The high-fat diet-fed mouse: a model for studying mechanisms and treatment of impaired glucose tolerance and type 2 diabetes”, Diabetes 53 Suppl 3: S215-219). This model was used to investigate the effects of indole and indole-related Test Articles. Avandia (rosiglitazone) was used as a control Test Article.
Female C57Black/6J mice (5-6 weeks old) were obtained from Jackson laboratories (Bar Harbor, Me.). […] Diet and water was provided ad libitum throughout the course of the study. Animals were acclimated for at least seven days, and then randomized by weight into twelve groups of eight animals each. Each group of animals was placed on diets with and without Test Articles as described in Table 12. All diets other than Laboratory Rodent Diet 5001 were provided by Research Diets (New Brunswick, N.J.).
In these studies and the accompanying figures, Diet D12328 from Research Diets is referred to as the “Low Fat” or Control diet/chow, while Diet D12331 from Research Diets is referred to as the “High Fat” diet. Groups 1-6 were fed diet D12328 that contained either no drug (Group 1) or varying amounts of Test Articles (Groups 2-6). Groups 7-12 were fed diet D12331 that contained either no drug (Group 7) or varying amounts of Test Articles (Groups 8-12). The Test Article content was calculated such that ad libitum consumption by the animals would deliver doses (in mg of Test Article per kg animal weight per day) approximating those listed in Table 12.
Animals were maintained on the diets for up to eleven weeks. Body weights were recorded weekly. Blood was drawn within 1-2 hrs of lights-on. without fasting. The serum was analyzed for glucose, total cholesterol, triglycerides (TG) and lysophospholipid (LPC) content.
Statistical analyses were performed using GraphPad Prism 4.03. (GraphPad Software, Inc., San Diego, Calif.). Two sets of statistical analyses were performed. First, the Low Fat Chow, no treatment group was compared by student's two-tailed T-test against the High Fat, High Sucrose diet, no treatment group. […] Second, all treatment groups on the High Fat, High Sucrose diet were compared to the no-treatment group on that diet by 1-way ANOVA, followed by a Dunnett's post-test.

[5] = test system: LDL receptor knockout mice (B6.129S7-Ldlrtm1Her); experiment: LDL receptor knockout mouse model (Example 15); format: in vivo; conditions: low fat control diet D12328, 25 or 90 mg/kg/d, vs low fat diet alone
Excerpt: Mice lack an enzyme found in humans, cholesterol ester transfer protein (CETP), which is responsible for the transfer of cholesterol from high density lipoproteins (HDL) to the ApoB-containing lipoproteins such as very low density lipoproteins (VLDL) and low density lipoproteins (LDL). Consequently, LDL cholesterol levels in wild-type mice are very low compared to those seen in humans. The low density lipoprotein receptor (LDLR) is involved with clearing LDL and lipoprotein remnants containing apoE. If the LDLR is inactivated, LDL cholesterol levels rise to levels seen in humans. On a normal rodent diet, the LDL cholesterol levels in LDLR deficient mice are elevated compared to wild-type mice. If the LDLR deficient mice are fed a Western-type diet containing elevated levels of fats and cholesterol, then the total cholesterol and LDL cholesterol levels become highly elevated and can exceed 1000 mg/dL and 300 mg/dL, respectively. This model was used to investigate the effects of indole and indole-related Test Articles. Avandia (rosiglitazone) and Zetia (ezetimibe) were used as control test articles.
Male LDL receptor knockout mice (B6.129S7-Ldlrtm1Her) were obtained from Jackson Labs (Bar Harbor, Me.). […] Diet and water was provided ad libitum throughout the course of the study. Animals were acclimated for at least seven days, and then randomized by body weight into fourteen groups of seven animals each. Each group of animals was placed on diets with and without Test Articles as described in Table 13. All diets other than Laboratory Rodent Diet 5001 were provided by Research Diets (New Brunswick, N.J.).
In these studies and the accompanying figures, Diet D12328 from Research Diets is referred to as the “Low Fat” or Control diet, while Diet D12079B from Research Diets is referred to as the “Western” diet. Groups 1-7 were fed diet D12328 that contained either no drug (Group 1) or varying amounts of Test Articles (Groups 2-7). Groups 8-14 were fed diet D12079 that contained either no drug (Group 8) or varying amounts of Test Articles (Groups 9-14). The Test Article content was calculated such that ad libitum consumption by the animals would deliver doses (in mg of Test Article per Kg animal weight per day) approximating those listed in Table 13.
Animals were maintained on the diets for eight weeks. Body weights were recorded weekly. Blood was drawn within 1-2 hrs of lights-on, without fasting. The serum was analyzed for total cholesterol, LDL cholesterol, HDL cholesterol, triglycerides (TG), free fatty acid (FFA) and lysophospholipid (LPC) content.
Statistical analyses were performed using GraphPad Prism 4.03. (GraphPad Software, Inc., San Diego, Calif.). Two sets of statistical analyses were performed. […]

[6] = Toxicology, 5-day daily oral gavage; format: in vivo, mice; conditions: 5 consecutive days
Excerpt: The purpose of this study was to evaluate the toxicity of indole and indole-related Test Articles when administered daily via oral gavage to mice for 5 consecutive days.
Assessment of toxicity was based on mortality; clinical signs, body weight, food consumption, clinical pathology, and macroscopic pathology data.

[7] = Mouse pharmacokinetic study (Example 13); conditions: for bioavailability: male, CD-1, mouse, in vivo, po, 30 mg/kg
Protocol: The plasma exposure of male CD-1 mice to indole and indole-related test articles (TAs) following intravenous (IV, 3 mg/kg) and oral (PO, 30 mg/kg) routes of administration was measured. This model was used to investigate the bioavailability of indole and indole-related TAs in mouse.
Two groups (N=18 and 27) of male CD-1 mice were used for the study.
The components were mixed by vortexing and sonicating in a warming bath for 60 minutes. Animals were fasted overnight prior to start of the study. On study day (1), formulations were sonicated for an hour to make sure that no visible particles were present prior to dosing, or if present were evenly distributed in suspension. Formulated test article were stirred continuously during dosing.
All animals were weighed on study day (1) and the body weights were recorded and used for dose calculation. […] Blood samples (0.5 mL) were collected at specified time intervals into labeled, yellow-capped Microtainer tubes. The tubes were centrifuged (8,000×g, 10 min). Serum was then pipetted off into labeled Eppendorf® tubes and frozen at −80° C. Clinical observations were recorded as needed.
Analysis of serum samples was performed by LC/MS/MS (Waters Quattro Premier, Milford, Mass.). Areas under curves (AUC) were calculated using Graphpad Prism Version 4. Bioavailability was calculated using the following equation: (Bioavailability)=(AUC0-t, oral/AUC0-t, iv)×(Doseiv/Doseoral)×100 where AUC0-t=total area under curve at the last measurable time point

[8] = target: T2, human group 1B PLA2 (hps PLA2) (Homo sapiens, UniProt P04054); experiment: Fluorimetric PLA2 inhibition assay, human (Example 8); format: biochemical; conditions: read-out: ILYPSA % inhibition at 15 μM hps PLA2
T2 construct: made in house; host or cells: E. coli
Excerpt: (§1) In this example, a fluorimetric assay procedure was used to evaluate the indole and indole-related compounds of the invention as inhibitors of group 1B phospholipase A2 (PLA2) from human, mouse and porcine.
(§2) In general, this assay used a phosphatidylmethanol substrate with a pyrene fluorophore on the terminal end of the sn-2 fatty acyl chain. Without being bound by theory, close proximity of the pyrenes from neighboring phospholipids in a phospholipid vesicle caused the spectral properties to change relative to that of monomeric pyrene. Bovine serum albumin was present in the aqueous phase and captured the pyrene fatty acid when it is liberated from the glycerol backbone owing to the PLA2-catalyzed reaction. […] The effect of a given inhibitor and inhibitor concentration on human, mouse and porcine phospholipase was determined.
(§3) Recombinant human and mouse group 1B PLA2 were cloned and expressed in E. coli as insoluble inclusion bodies. The inclusion bodies were isolated and purified by sonicating cell pellet in lysis buffer (50 mM Tris-HCl pH 7.0, 250 mM NaCl, 0.5% Triton 100), centrifugation at 12,000×g, and washing three times in washing buffer (20 mM Tris-HCl pH 7.0, 250 mM NaCl, 0.5% Triton 100). Then the inclusion bodies were dissolved in dissolving buffer (50 mM Tris-HCl pH 7.0, 250 mM NaCl, 6 M Guanidine-HCl, 1 mM DTT) and dialyzed four times against 10 volumes of refolding buffer (20 mM Tris-HCl pH 7.0, 250 mM NaCl, 0.5M Guanidine-HCl, 5% (w/w) Glycerol, 2 mM reduced glutathione and 0.4 mM oxidized glutathione) at 4° C. The correctly refolded proteins were concentrated using Amicon Stirred cell under nitrogen pressure (<70 psi) and dialyzed against 10 volumes of 50 mM Tris-HCl pH 7.0, 250 mM NaCl and 5% (w/w) glycerol. Human and mouse group 1B PLA2 were further purified by High S ion exchange and gel filtration columns.
(§4) The following reagents were prepared: • 1. PPyrPM stock solution (1 mg/ml) in toluene:isopropanol (1:1) • 2. […]
(§5) The following procedure was performed to evaluate the inhibitory potency of the evaluated compounds. • 1. […]

[9] = target: T3, mouse group 1B PLA2 (mps PLA2) (Mus musculus, UniProt Q9Z0Y2); experiment: Fluorimetric PLA2 inhibition assay, mouse (Example 8); format: biochemical; conditions: read-out: ILYPSA % inhibition at 15 μM mps PLA2
T3 construct: made in house; host or cells: E. coli
T3 sequence (Q9Z0Y2 23-146): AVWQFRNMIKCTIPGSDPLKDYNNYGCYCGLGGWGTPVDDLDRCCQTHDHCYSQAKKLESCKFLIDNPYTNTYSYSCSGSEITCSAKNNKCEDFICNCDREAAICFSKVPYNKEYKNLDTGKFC
Excerpt: as §1, §2, §3, §4, §5

Chain of porcine pancreatic secreted PLA2 (pps PLA2) (P00592 23-146): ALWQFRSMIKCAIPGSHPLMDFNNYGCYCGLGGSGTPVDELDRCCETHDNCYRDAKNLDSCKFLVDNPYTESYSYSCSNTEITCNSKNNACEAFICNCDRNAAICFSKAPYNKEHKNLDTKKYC
Chain of human pancreatic secreted PLA2 (hps PLA2) (P04054 23-148): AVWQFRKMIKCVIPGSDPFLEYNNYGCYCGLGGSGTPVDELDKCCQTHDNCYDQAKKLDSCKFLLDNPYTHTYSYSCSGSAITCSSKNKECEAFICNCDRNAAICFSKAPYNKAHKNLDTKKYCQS
T2 sequence (P04054 23-148): as above

## Cc1c(CC(N)=O)c2c(OCCCC(=O)O)cccc2n1Cc1ccccc1
[1]
  IC50: 3.66 µM

## Cc1c(CC(N)=O)c2cc(OCc3ccc(C(=O)O)cc3)ccc2n1Cc1ccccc1
[2]
  IC50: 0.147 ± 0.009 µM
[1]
  IC50: 22.5 µM
[3]
  IC50: 7.5 µM

## NC(=O)Cc1c(Br)n(Cc2ccccc2)c2ccc(OCCCC(=O)O)cc12
[1]
  IC50: 15.9 µM
[3]
  IC50: 2.86 µM

## NC(=O)Cc1c(Br)n(Cc2ccccc2)c2ccc(OCCCP(=O)(O)O)cc12
[1]
  IC50: 6.2 µM
[3]
  IC50: 2.2 µM

## CCc1c(CC(N)=O)c2cc(OCCCP(=O)(O)O)ccc2n1Cc1cccc(Cl)c1
[1]
  IC50: 46.2 µM

## Cc1c(CC(N)=O)c2cc(CCCC(=O)O)ccc2n1Cc1ccccc1
[1]
  IC50: 94 µM

## CCc1c(CC(N)=O)c2cc(SCCCC(=O)O)ccc2n1Cc1ccccc1
[1]
  IC50: 16 µM

## Cc1c(CC(=O)NN)c2cc(OCCCC(=O)O)ccc2n1Cc1ccccc1
[1]
  IC50 (μM) hps PLA2: no activity
[3]
  IC50 (μM) pps PLA2: no activity

## CCc1c(C(=O)C(N)=O)c2c(OCC(=O)O)cccc2n1Cc1ccccc1-c1ccccc1
[2]
  IC50: 0.004 ± 0.001 µM
[1]
  IC50: 0.062 µM

## Cc1c(C(=O)C(N)=O)c2c(/C=C/C(=O)O)cccc2n1Cc1ccccc1
[1]
  IC50: > 100 µM

## Cc1c(C(=O)C(N)=O)c2c(CCC(=O)O)cccc2n1Cc1ccccc1
[1]
  IC50: > 100 µM

## 2,2′,2″-(1,1′,1″-(12,12′,12″-(benzene-1,3,5-triyltris(oxy))tris(dodecane-12,1-diyl))tris(3-(2-amino-2-oxoacetyl)-2-methyl-1H-indole-4,1-diyl))tris(oxy)triacetic acid [ILY-v-32]
[4]
  effect in animals fed a low fat control diet containing test article: No or little effect
[5]
  effect in animals fed a low fat control diet containing test article: No or little effect
[6]
  clinical pathology data, treated groups vs vehicle control group: no differences

## Cc1c(C(=O)C(N)=O)c2c(OCC(=O)NS(=O)(=O)CCCC(=O)O)cccc2n1Cc1ccccc1 [ILY-IV-40, 4-[2-(3-Aminooxalyl-1-benzyl-2-methyl-1H-indol-4-yloxy)-acetylsulfamoyl]-butyric acid]
[4]
  effect in animals fed a low fat control diet containing test article: No or little effect
[5]
  effect in animals fed a low fat control diet containing test article: No or little effect
[6]
  clinical pathology data, treated groups vs vehicle control group: no differences
[7]; PO 30 mg/kg vs IV 3 mg/kg, CD-1 mice, serum LC/MS/MS
  Bioavailability (%): 0.50%

## Cc1c(C(=O)C(N)=O)c2c(OC(Br)(C(N)=O)C(F)(F)F)cccc2n1Cc1ccccc1 (centres unmarked) [ILY-IV-53, 2-(3-Aminooxalyl-1-benzyl-2-methyl-1H-indol-4-yloxy)-2-bromo-3,3,3-trifluoro-propionamide]
[8]
  inhibition at 15 µM: 49%
[9]
  inhibition at 15 µM: 49.7%

## Cc1c(C(=O)C(N)=O)c2c(OCC(=O)O)cccc2n1CCCCCCCCCCCCSCCCCCCCCSCCCCCCCCCCCCn1c(C)c(C(=O)C(N)=O)c2c(OCC(=O)O)cccc21 [ILY-v-26, 2,2′-(1,1′-(12,12′-(Octane-1,8-diylbis(sulfanediyl))bis(dodecane-12,1-diyl))bis(3-(2-amino-2-oxoacetyl)-2-methyl-1H-indole-4,1-diyl))bis(oxy)diacetic acid]
[4]
  effect in animals fed a low fat control diet containing test article: No or little effect
[5]
  effect in animals fed a low fat control diet containing test article: No or little effect
[6]
  clinical pathology data, treated groups vs vehicle control group: no differences

## Cc1c(C(=O)C(N)=O)c2c(OCC(=O)O)cccc2n1CCCCCCCCCCCCOc1ccccc1OCCCCCCCCCCCCn1c(C)c(C(=O)C(N)=O)c2c(OCC(=O)O)cccc21 [ILY-v-27, [3-Aminooxalyl-1-(12-{2-[12-(3-aminooxalyl-4-carboxymethoxy-2-methyl-indol-1-yl)-dodecyloxy]-phenoxy}-dodecyl)-2-methyl-1H-indol-4-yloxy]-acetic acid]
[7]
  bioavailability: 1.49%

## Cc1c(C(=O)C(N)=O)c2c(OCC(=O)O)cccc2n1CCCCCCCCCCCCOc1ccc(C(C)(C)c2ccc(OCCCCCCCCCCCCn3c(C)c(C(=O)C(N)=O)c4c(OCC(=O)O)cccc43)cc2)cc1 [ILY-v-30, 2,2′-(1,1′-(12,12′-(4,4′-(propane-2,2-diyl)bis(4,1-phenylene))bis(oxy)bis(dodecane-12,1-diyl))bis(3-(2-amino-2-oxoacetyl)-2-methyl-1H-indole-4,1-diyl))bis(oxy)diacetic acid]
[4]
  effect in animals fed a low fat control diet containing test article: No or little effect
[5]
  effect in animals fed a low fat control diet containing test article: No or little effect
[6]
  clinical pathology data, treated groups vs vehicle control group: no differences

## Cc1c(C(=O)C(N)=O)c2c(OCC(=O)O)cccc2n1CCCCCCCCCCCCN(CCCCCCCCCCCCn1c(C)c(C(=O)C(N)=O)c2c(OCC(=O)O)cccc21)Cc1ccccc1 [ILY-v-31, 2,2′-(1,1′-(12,12′-(benzylazanediyl)bis(dodecane-12,1-diyl))bis(3-(2-amino-2-oxoacetyl)-2-methyl-1H-indole-4,1-diyl))bis(oxy)diacetic acid]
[7]
  bioavailability: 5.15%

## Cc1c(C(=O)C(N)=O)c2c(OCC(=O)O)cccc2n1CCCCCCCCCCCCOc1ccccc1-c1ccccc1OCCCCCCCCCCCCn1c(C)c(C(=O)C(N)=O)c2c(OCC(=O)O)cccc21 [ILY-v-37, [3-Aminooxalyl-1-(12-{2′-[12-(3-aminooxalyl-4-carboxymethoxy-2-methyl-indol-1-yl)-dodecyloxy]-biphenyl-2-yloxy}-dodecyl)-2-methyl-1H-indol-4-yloxy]-acetic acid]
[6]
  clinical pathology data, treated groups vs vehicle control group: no differences
